How the values were obtained:
Assay type in all cases: in vivo
[1] = tested on: Kochia (Kochia scoparia); test: Test A preemergence; details: Bassia scoparia, pre-emergence, 240 h, 0 to 100 scale where 0 is no effect and 100 is complete control, read-out: Kochia plant response rating
How it was run: (§1)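 Treatment is preemergence as a directed soil spray after planting, or postemergence at the one- to two-leaf stage, with test chemical in a non-phytotoxic solvent mixture plus surfactant. Plants stay in the greenhouse about 10 d before visual injury scoring on a 0 to 100 scale versus untreated controls.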

[2] = tested on: barnyardgrass (Echinochloa crus-galli); test: Test A preemergence; details: Echinochloa crus-galli, pre-emergence, 240 h, 0 to 100 scale where 0 is no effect and 100 is complete control, read-out: Barnyardgrass plant response rating
How it was run: as §1

[3] = tested on: giant foxtail (Setaria faberii); test: Test A preemergence; details: Setaria faberi, pre-emergence, 240 h, 0 to 100 scale where 0 is no effect and 100 is complete control, read-out: Foxtail, Giant plant response rating
How it was run: as §1

[4] = tested on: pigweed (Amaranthus retroflexus); test: Test A preemergence; details: Amaranthus retroflexus, pre-emergence, 240 h, 0 to 100 scale where 0 is no effect and 100 is complete control, read-out: Pigweed plant response rating
[5] = tested on: ragweed (common ragweed, Ambrosia elatior); test: Test A preemergence; details: Ambrosia artemisiifolia, pre-emergence, 240 h, 0 to 100 scale where 0 is no effect and 100 is complete control, read-out: Ragweed plant response rating
How it was run: as §1

[6] = tested on: ryegrass, Italian (Italian ryegrass, Lolium multiflorum); test: Test A preemergence; details: Lolium multiflorum, pre-emergence, 240 h, 0 to 100 scale where 0 is no effect and 100 is complete control, read-out: Ryegrass, Italian plant response rating
How it was run: as §1

[7] = tested on: Galium (catchweed bedstraw, Galium aparine); test: Test A postemergence; details: Galium, post-emergence, 240 h
How it was run: as §1

[8] = tested on: Kochia (Kochia scoparia); test: Test A postemergence; details: Bassia scoparia, post-emergence, 240 h, Postemergence, 31 g ai/ha; visual injury after approx. 10 d; 0 to 100 scale, 0 no effect, 100 complete control; read-out: Plant response rating, Kochia
How it was run: as §1

[9] = tested on: barnyardgrass (Echinochloa crus-galli); test: Test A postemergence; details: Echinochloa crus-galli, post-emergence, 240 h
How it was run: as §1

[10] = tested on: blackgrass (Alopecurus myosuroides); test: Test A postemergence; details: Alopecurus myosuroides, post-emergence, 240 h
How it was run: as §1

[11] = tested on: corn (Zea mays); test: Test A postemergence; details: Zea mays, post-emergence, 240 h
How it was run: as §1

[12] = tested on: giant foxtail (Setaria faberii); test: Test A postemergence; details: Setaria faberi, post-emergence, 240 h
How it was run: as §1

[13] = tested on: pigweed (Amaranthus retroflexus); test: Test A postemergence; details: Amaranthus retroflexus, post-emergence, 240 h, 125 g ai/ha, postemergence, visual injury vs untreated controls after approx. 10 d; 0 = no effect, 100 = complete control; read-out: Pigweed plant response rating (0 to 100 scale)
How it was run: as §1

[14] = tested on: ragweed (common ragweed, Ambrosia elatior); test: Test A postemergence; details: Ambrosia artemisiifolia, post-emergence, 240 h, 125 g ai/ha, postemergence, visual injury vs untreated controls after approx. 10 d; 0 = no effect, 100 = complete control; read-out: Ragweed plant response rating (0 to 100 scale)
How it was run: as §1

[15] = tested on: ryegrass, Italian (Italian ryegrass, Lolium multiflorum); test: Test A postemergence; details: Lolium multiflorum, post-emergence, 240 h, 125 g ai/ha, postemergence, visual injury vs untreated controls after approx. 10 d; 0 = no effect, 100 = complete control; read-out: Ryegrass, Italian plant response rating (0 to 100 scale)
How it was run: as §1

[16] = tested on: wheat (Triticum aestivum); test: Test A postemergence; details: Triticum aestivum, post-emergence, 240 h, 125 g ai/ha, postemergence, visual injury vs untreated controls after approx. 10 d; 0 = no effect, 100 = complete control; read-out: Wheat plant response rating (0 to 100 scale)
How it was run: as §1

[17] = tested on: barnyardgrass (Echinochloa crus-galli); test: Test B flooded paddy test; details: Echinochloa crus-galli, 250 g ai/ha, Flood; 0 to 100 scale where 0 is no effect and 100 is complete control; read-out: Barnyardgrass plant response rating
How it was run: (§2)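 Rating scale 0–100 (visual, vs untreated controls) after a 13–15 d greenhouse period; application to the flood layer, 3 cm above soil and maintained; plants at 2-leaf stage when treated.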

[18] = tested on: ducksalad (Heteranthera limosa); test: Test B flooded paddy test; details: Heteranthera limosa, 250 g ai/ha, Flood; 0 to 100 scale where 0 is no effect and 100 is complete control; read-out: Ducksalad plant response rating
How it was run: as §2

[19] = tested on: rice (Oryra sativa); test: Test B flooded paddy test; details: Oryza sativa, 250 g ai/ha, Flood; 0 to 100 scale where 0 is no effect and 100 is complete control; read-out: Rice plant response rating
How it was run: as §2

[20] = tested on: sedge, umbrella (small-flower umbrella sedge, Cyperus difformis); test: Test B flooded paddy test; details: Cyperus difformis, 250 g ai/ha, Flood; 0 to 100 scale where 0 is no effect and 100 is complete control; read-out: Sedge, Umbrella plant response rating
How it was run: as §2

[21] = 125 g ai/ha, preemergence, approx. 10 d

Question: For `CON1CC[C@H](c2cccc(C(F)(F)F)c2)[C@@H](C(=O)Nc2ccc(F)c(F)c2F)C1=O` [Compound 1170], which pest or weed control at 31 g/ha ([1]; 31 g ai/ha, Preemergence) is on record?
Answer: 0%

Question: What about the pest or weed control at 125 g/ha [1, 21] of the same compound?
Answer: 0%

Question: And the pest or weed control at 31 g/ha ([2]; 31 g ai/ha, Preemergence)?
Answer: 0%

Question: What about the pest or weed control at 125 g/ha [2, 21] of the same compound?
Answer: 40%

Question: And the pest or weed control at 31 g/ha ([3]; 31 g ai/ha, Preemergence)?
Answer: 0%

Question: And the pest or weed control at 125 g/ha [3, 21]?
Answer: 70%

Question: And the pest or weed control at 31 g/ha ([4]; 31 g ai/ha, Preemergence)?
Answer: 0%

Question: What about the pest or weed control at 125 g/ha [4, 21] of the same compound?
Answer: 0%

Question: And the pest or weed control at 31 g/ha ([5]; 31 g ai/ha, Preemergence)?
Answer: 0%

Question: What about the pest or weed control at 125 g/ha [5, 21] of the same compound?
Answer: 0%

Question: What about the pest or weed control at 31 g/ha ([6]; 31 g ai/ha, Preemergence) of the same compound?
Answer: 0%

Question: What about the pest or weed control at 125 g/ha [6, 21] of the same compound?
Answer: 0%

Question: And the pest or weed control at 125 g/ha ([7]; 125 g ai/ha, postemergence, visual injury vs untreated controls after approx. 10 d, 0 = no effect, 100 = complete control, read-out: Galium plant response rating (0 to 100 scale))?
Answer: 30%

Question: What about the pest or weed control at 31 g/ha ([7]; Postemergence, 31 g ai/ha, visual injury after approx. 10 d, 0 to 100 scale, 0 no effect, 100 complete control, read-out: Plant response rating, Galium) of the same compound?
Answer: 20%

Question: What about the pest or weed control at 31 g/ha [8] of the same compound?
Answer: 0%

Question: What about the pest or weed control at 125 g/ha ([9]; 125 g ai/ha, postemergence, visual injury vs untreated controls after approx. 10 d, 0 = no effect, 100 = complete control, read-out: Barnyardgrass plant response rating (0 to 100 scale)) of the same compound?
Answer: 60%

Question: What about the pest or weed control at 31 g/ha ([9]; Postemergence, 31 g ai/ha, visual injury after approx. 10 d, 0 to 100 scale, 0 no effect, 100 complete control, read-out: Plant response rating, Barnyardgrass) of the same compound?
Answer: 0%

Question: And the pest or weed control at 125 g/ha ([10]; 125 g ai/ha, postemergence, visual injury vs untreated controls after approx. 10 d, 0 = no effect, 100 = complete control, read-out: Blackgrass plant response rating (0 to 100 scale))?
Answer: 20%

Question: What about the pest or weed control at 31 g/ha ([10]; Postemergence, 31 g ai/ha, visual injury after approx. 10 d, 0 to 100 scale, 0 no effect, 100 complete control, read-out: Plant response rating, Blackgrass) of the same compound?
Answer: 0%

Question: What about the plant injury at 125 g/ha ([11]; 125 g ai/ha, postemergence, visual injury vs untreated controls after approx. 10 d, 0 = no effect, 100 = complete control, read-out: Corn plant response rating (0 to 100 scale)) of the same compound?
Answer: 0%

Question: What about the Corn plant response rating (crop injury, 0 = no effect, 100 = complete kill) at 31 g/ha ([11]; Postemergence, 31 g ai/ha, visual injury after approx. 10 d, 0 to 100 scale, 0 no effect, 100 complete control) of the same compound?
Answer: 0%

Question: What about the pest or weed control at 125 g/ha ([12]; 125 g ai/ha, postemergence, visual injury vs untreated controls after approx. 10 d, 0 = no effect, 100 = complete control, read-out: Foxtail, Giant plant response rating (0 to 100 scale)) of the same compound?
Answer: 60%

Question: What about the pest or weed control at 31 g/ha ([12]; Postemergence, 31 g ai/ha, visual injury after approx. 10 d, 0 to 100 scale, 0 no effect, 100 complete control, read-out: Plant response rating, Foxtail, Giant) of the same compound?
Answer: 0%

Question: What about the pest or weed control at 125 g/ha [13] of the same compound?
Answer: 0%

Question: And the pest or weed control at 125 g/ha [14]?
Answer: 0%

Question: What about the pest or weed control at 125 g/ha [15] of the same compound?
Answer: 0%

Question: What about the plant injury at 125 g/ha [16] of the same compound?
Answer: 0%

Question: What about the pest or weed control at 250 g/ha [17] of the same compound?
Answer: 30%

Question: What about the pest or weed control at 250 g/ha [18] of the same compound?
Answer: 40%

Question: What about the pest or weed control at 250 g/ha [19] of the same compound?
Answer: 0%

Question: What about the pest or weed control at 250 g/ha [20] of the same compound?
Answer: 0%

Source: patent US12077503B2, “Substituted cyclic amides and their use as herbicides” (FMC CORPORATION, priority 2015, dated 2024)
